Results reported in patent publication EP0330824A1, “Use of quinolizine and quinolizinone derivatives in the manufacture of medicaments for the treatment of cardiac arrhythmias” (MERRELL DOW PHARMACEUTICALS INC., priority 1988, dated 1989).
Structures can show the parent of a compound that is named as a salt.

Tests used:
[1] = system: Von Bezold-Jarisch Reflex induced by 5-HT; assay: Von Bezold-Jarisch Reflex induced by intravenous 5-HT; type: in vivo; details: rat
Source text: The activity of these compounds against 5-HT can be assessed in vivo by measurement of the effect of the compound on the Von Bezold-Jarisch Reflex induced by 5-HT injected intravenously into the rat (see Paintal A.S., Physiol. Rev. 53, 159-227, 1973; J.R. Fozard, Naunyn-Schmiedeberg's Arch. Pharmacol., 326, 1984, 36-44). The transient cardiac slowing arises from an increased afferent vagus activity arising from stimulation by 5-HT of sensory afferent fibers in and around the heart.

[2] = system: action potential of isolated cardiac tissue; assay: Action potential of isolated cardiac tissue (Purkinje fiber or papillary muscle); set-up: species or system dog or guinea pig; details: 10⁻⁸ to 10⁻⁵ moles/liter in tissue bath, stimulation at 1 Hz
Source text: A gas mixture comprised of 95% O₂ and 5% CO₂ is bubbled through the solution while it is maintained within a pH range of from 7.3-7.4.
The heart of an anesthetized mongrel dog is surgically removed and the Purkinje fibers are dissected from either of the ventricles. Alternately, papillary muscles are removed from the right cardiac ventricle of a guinea pig. A Purkinje fiber or a papillary muscle is then placed in a tissue bath which is continuously perfused with modified Tyrode's solution.¹
The electrophysiology of the cardiac tissue is monitored by conventional glass microelectrodes. One microelectrode is inserted into a cell in the cardiac muscle fiber and a ground electrode is positioned in the tissue bath. A conventional oscilloscope is utilized to visualize the action potential waveforms of the cardiac cell. […]
At this point, representative control action potentials are recorded and analyzed by a computer.
After establishing a control action potential, the test compound is introduced into the Modified Tyrode's solution in a quantity such that the test compound is present within the tissue bath in a range of from 10⁻⁸ to 10⁻⁵ moles/liter. After the effect of the test compound has reached a steady state, the action potential is again recorded and analyzed in the manner described above.

Structure (SMILES)	suppression of the Von Bezold-Jarisch Reflex response ([1]; 0.01-0.1 mg/kg given intravenously)	suppression of the Von Bezold-Jarisch Reflex response ([1]; 0.25-1 mg/kg given orally)	rate of maximal depolarization of the action potential [2]
O=C(OC1CC2CC3CC(C1)N2CC3=O)c1c[nH]c2ccccc12 (stereo not drawn) [endo-hexahydro-8-(3-indolylcarbonyloxy)-2,6-methano-2H-quinolizin-3(4H)-one hydrochloride]	suppressed the response dose-dependently	suppressed the response dose-dependently	–
O=C(OC1CC2CC3CC(C1)N2CC3=O)c1c[nH]c2ccccc12 (stereo not drawn) [endo-hexahydro-8-(3-indolylcarbonyloxy)-2,6-methano-2H-quinolizin-3(4H)-one]	–	–	capable of delaying the rate of maximal depolarization of the action potential
